Reference: patent publication US7964701B2, “Alpha-fetoprotein peptides” (Albany Medical College, priority 2006, dated 2011)
“Also recorded” adds a separate entry of the source.

Experiments:
[1] = system: E2-stimulated growth of mouse uterus; settings: Mesfin et al. / earlier studies; cited from earlier work
[2] = system: E2-stimulated growth of mouse uterus; test: Immature mouse uterine growth assay; assay type: in vivo; settings: 1 μg/mouse intraperitoneally
Description: The anti-breast cancer activity of the linear and cyclic 8-mer and 9-mer AFP-derived peptides is well-documented using the immature mouse uterine growth assay and the human breast cancer xenograft assay; there is a strong correlation between the results of these two assays. To evaluate peptide-induced inhibition by the peptide of the present invention of estrogen-stimulated proliferation of normal tissue, the immature mouse uterine growth assay was utilized. Briefly, 13-15 day-old Swiss/Webster female mice, 6-8 g in body weight, were distributed into treatment groups of 5 mice per group so that each group contained animals of the same range of body weight. The peptide of the invention was injected i.p., s.c., or p.o. into the mice. One hour later, estradiol (E2) or vehicle control for E2 was injected i.p. Twenty-two hours after the second injection, uteri were harvested, trimmed free of mesenteries, and immediately weighed. The uterine weights were normalized to mouse body weights to compensate for differences in body weight among litters of the same age. Experiments employed a minimum of five mice per group and the mean normalized uterine weight±SE for each group was calculated. Percent growth inhibition in a test group was calculated from normalized uterine wet weights as described below.
Differences between groups were evaluated, employing the nonparametric Wicoxon ranks sum test. In all cases, growth inhibitions that were greater than 25% were significant at P≦0.05.
In other experiments, peptide analogs comprising the sequences TOVN SEQ ID NO.: 3) and TPVN (SEQ ID NO.: 2) were assessed for their ability to inhibit E2-stimulated growth of mouse uterus after intraperitoneal and oral administration.
The ability to inhibit E2-stimulated growth of normal mouse uterus was used as a screening assay for biological activity of AFPep analogs. In general, inhibitory activity≧20% is considered to be biologically significant. Each analog's inhibitory effect on E2-stimulated growth was compared to AFPep (a positive control) and to PGVGQ (SEQ ID NO.: 44)(a negative control). PGVGQ (SEQ ID NO.: 44) (amino acids 478-482 of AFP) is a portion of the primary structure of AFP near to the anti-cancer active site of AFP and is comprised of amino acids (P, V, and G) that are important components of AFPep. A scrambled analog of AFPep was not used because some scrambled peptides retain low biological activity (data not shown). In Table 3, bold letters denote the sequences containing a putative Type I beta-turn, which was postulated to be necessary for antiestrogenic activity.

Substance: MTPVNPG [7-mer peptide earlier reported by Mesfin et al, reference compound]
- antiestrogenic activity reported in earlier studies [1]: substantially reduced antiestrogenic properties; also recorded: little antiestrogenic activity
- Inhibition ± S.E, % Immature mouse uterine growth Intraperitoneal [2]: 18 ± 1%
- antiestrogenic activity (inhibition of E2-stimulated uterine growth), in words ([2]; Table 3 discussion): significantly less activity
